Data reported in the NIST ThermoML archive (doi:10.1016/j.fluid.2014.04.025).
± gives the expanded uncertainty stated by the source.

Legend:
[1] = Liquid; for mass density: 293.15 K, 101.33 kPa, Densimeter; for Normal boiling temperature: Ebulliometric method (Recirculating still)
[2] = refractive index (Na D-line) (dimensionless); conditions: 293.15 K; 101.33 kPa; Liquid; Standard Abbe refractometry

| mass density [1] [kg/m3] | Normal boiling temperature [1] [°C] | refractive index [2] | Structure (SMILES) |
| --- | --- | --- | --- |
| 964.74 ± 0.12 | 124.48 ± 0.2 | 1.40234 ± 0.00034 | COCCO [2-methoxyethan-1-ol] |
| 1100.36 ± 0.14 | 189.03 ± 0.2 | 1.47987 ± 0.00034 | C[S+](C)[O-] [dimethyl sulfoxide] |

| Structure (SMILES) | mass density [1] [kg/m3] | Normal boiling temperature [1] [°C] | refractive index [2] |
| --- | --- | --- | --- |
| Cc1ccccc1 [toluene] | 867.02 ± 0.11 | 110.58 ± 0.2 | 1.49678 ± 0.00033 |
